Results as given in patent US20230085307A1, “PYRIDAZINONE COMPOUND AND HERBICIDE” (NISSAN CHEMICAL CORPORATION, priority 2019, published 2023).

Columns and labels:
velvetleaf [1] = assay: Test Example 5: herbicidal effect by foliage application, plastic box (Table 20, symbol M); format: in vivo, velvetleaf (Abutilon theophrasti); details: foliage application
In short: (§1)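 Plants sown in sterilized diluvial soil and grown 14 days in a greenhouse at 25° C to 30° C, then sprayed on the foliage with the compound's emulsion diluted in water to a predetermined herbicide amount. Injury to weeds and crops scored three weeks after application on a visual rating scale.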

velvetleaf [2] = assay: Test Example 4: herbicidal effect by soil treatment (Table 19, symbol M); format: in vivo, velvetleaf (Abutilon theophrasti); details: amount of applied herbicide 320 g/ha
In short: (§2)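 Seeds were sown in sterilized diluvial soil and covered with about 1.5 cm of soil. An emulsion formulation diluted with water to a predetermined herbicide amount was sprayed evenly onto the soil surface. Plants grew in a greenhouse at 25° C. to 30° C., and the effect was scored three weeks after application using criteria from an earlier test.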

blackgrass [3] = assay: Test Example 5: herbicidal effect by foliage application, plastic box (Table 20, symbol J); format: in vivo, blackgrass (Alopecurus myosuroides); details: foliage application
In short: as §1

lambsquarters [4] = assay: Test Example 4: herbicidal effect by soil treatment (Table 19, symbol O); format: in vivo, lambsquarters (Chenopodium album); details: amount of applied herbicide 320 g/ha
In short: as §2

Italian ryegrass [5] = assay: Test Example 4: herbicidal effect by soil treatment (Table 19, symbol K); format: in vivo, Italian ryegrass (Lolium multiflorum); details: amount of applied herbicide 320 g/ha
In short: as §2

green foxtail [6] = assay: Test Example 5: herbicidal effect by foliage application, plastic box (Table 20, symbol G); format: in vivo, green foxtail (Setaria viridis); details: foliage application
In short: as §1

wild oat [7] = assay: Test Example 4: herbicidal effect by soil treatment (Table 19, symbol I); format: in vivo, wild oat (Avena fatua); details: amount of applied herbicide 320 g/ha
In short: as §2

chickweed [8] = assay: Test Example 5: herbicidal effect by foliage application, plastic box (Table 20, symbol P); format: in vivo, common chickweed (Stellaria media); details: foliage application
In short: as §1

wild oat [9] = assay: Test Example 5: herbicidal effect by foliage application, plastic box (Table 20, symbol I); format: in vivo, wild oat (Avena fatua); details: foliage application
In short: as §1

Chinese sprangletop = assay: Test Example 3: herbicidal effect by foliage application, Wagner pot (Table 18, symbol D); format: in vivo, chinese sprangletop (Leptochloa chinensis); details: amount of applied herbicide 320 g/ha
In short: (§3)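 Plants were sown in alluvial soil held under 0.1–0.5 cm standing water and grown 14 days in a greenhouse at 25–30 °C. An emulsifiable formulation, water-diluted to the set dose, was then sprayed onto the foliage, and effects were scored three weeks later using previously defined criteria.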

southern crabgrass [10] = assay: Test Example 4: herbicidal effect by soil treatment (Table 19, symbol F); format: in vivo, southern crabgrass (Digitaria ciliaris); details: amount of applied herbicide 320 g/ha
In short: as §2

southern crabgrass [11] = assay: Test Example 5: herbicidal effect by foliage application, plastic box (Table 20, symbol F); format: in vivo, southern crabgrass (Digitaria ciliaris); details: foliage application
In short: as §1

barnyard grass [12] = assay: Test Example 4: herbicidal effect by soil treatment (Table 19, symbol H); format: in vivo, barnyard grass (Echinochloa crus-galli); details: amount of applied herbicide 320 g/ha
In short: as §2

rice flat sedge = assay: Test Example 3: herbicidal effect by foliage application, Wagner pot (Table 18, symbol E); format: in vivo, rice flat sedge (Cyperus iria); details: amount of applied herbicide 320 g/ha
In short: as §3

redroot pigweed [13] = assay: Test Example 5: herbicidal effect by foliage application, plastic box (Table 20, symbol N); format: in vivo, redroot pigweed (Amaranthus retroflexus); details: foliage application
In short: as §1

windgrass [14] = assay: Test Example 4: herbicidal effect by soil treatment (Table 19, symbol L); format: in vivo, windgrass (Apera spica-venti); details: amount of applied herbicide 320 g/ha
In short: as §2

windgrass [15] = assay: Test Example 5: herbicidal effect by foliage application, plastic box (Table 20, symbol L); format: in vivo, windgrass (Apera spica-venti); details: foliage application
In short: as §1

persian speedwell [16] = assay: Test Example 5: herbicidal effect by foliage application, plastic box (Table 20, symbol R); format: in vivo, Persian speedwell (Veronica persica); details: foliage application
In short: as §1

lambsquarters [17] = assay: Test Example 5: herbicidal effect by foliage application, plastic box (Table 20, symbol O); format: in vivo, lambsquarters (Chenopodium album); details: foliage application
In short: as §1

Italian ryegrass [18] = assay: Test Example 5: herbicidal effect by foliage application, plastic box (Table 20, symbol K); format: in vivo, Italian ryegrass (Lolium multiflorum); details: foliage application
In short: as §1

redroot pigweed [19] = assay: Test Example 4: herbicidal effect by soil treatment (Table 19, symbol N); format: in vivo, redroot pigweed (Amaranthus retroflexus); details: amount of applied herbicide 320 g/ha
In short: as §2

barnyard grass [20] = assay: Test Example 5: herbicidal effect by foliage application, plastic box (Table 20, symbol H); format: in vivo, barnyard grass (Echinochloa crus-galli); details: foliage application
In short: as §1

blackgrass [21] = assay: Test Example 4: herbicidal effect by soil treatment (Table 19, symbol J); format: in vivo, blackgrass (Alopecurus myosuroides); details: amount of applied herbicide 320 g/ha
In short: as §2

chickweed [22] = assay: Test Example 4: herbicidal effect by soil treatment (Table 19, symbol P); format: in vivo, common chickweed (Stellaria media); details: amount of applied herbicide 320 g/ha
In short: as §2

persian speedwell [23] = assay: Test Example 4: herbicidal effect by soil treatment (Table 19, symbol R); format: in vivo, Persian speedwell (Veronica persica); details: amount of applied herbicide 320 g/ha
In short: as §2

barnyard grass [24] = assay: Test Example 3: herbicidal effect by foliage application, Wagner pot (Table 18, symbol H); format: in vivo, barnyard grass (Echinochloa crus-galli); details: amount of applied herbicide 320 g/ha
In short: as §3

green foxtail [25] = assay: Test Example 4: herbicidal effect by soil treatment (Table 19, symbol G); format: in vivo, green foxtail (Setaria viridis); details: amount of applied herbicide 320 g/ha
In short: as §2

[26] = AAH 320 g/ha, evaluated three weeks after application
[27] = 320 g/ha, three weeks after application

CCCC(=O)Oc1c(C)nn(C)c(=O)c1-c1c(-c2ccc(F)cc2F)sc2ccc(F)cc12 [2-343]
M: velvetleaf, herbicidal effect (criteria 0-5) (velvetleaf [1]; [26]): 5 (Herbicidal rate of 90% or more (almost completely withered))
herbicidal effect on M: velvetleaf (velvetleaf [2]): 3 (Herbicidal rate of 40% or more and less than 70%)
J: blackgrass, herbicidal effect (criteria 0-5) (blackgrass [3]; [26]): 4 (Herbicidal rate of 70% or more and less than 90%)
herbicidal effect on O: lambsquarters (lambsquarters [4]): 2 (Herbicidal rate of 20% or more and less than 40%)
herbicidal effect on K: Italian ryegrass (Italian ryegrass [5]): 5 (Herbicidal rate of 90% or more (almost completely withered))
G: green foxtail, herbicidal effect (criteria 0-5) (green foxtail [6]; [26]): 5 (Herbicidal rate of 90% or more (almost completely withered))
herbicidal effect on I: wild oat (wild oat [7]): 2 (Herbicidal rate of 20% or more and less than 40%)
P: chickweed, herbicidal effect (criteria 0-5) (chickweed [8]; [26]): 5 (Herbicidal rate of 90% or more (almost completely withered))
I: wild oat, herbicidal effect (criteria 0-5) (wild oat [9]; [26]): 3 (Herbicidal rate of 40% or more and less than 70%)
herbicidal effect on D: Chinese sprangletop (Chinese sprangletop): 5 (Herbicidal rate of 90% or more (almost completely withered))
herbicidal effect on F: southern crabgrass (southern crabgrass [10]): 3 (Herbicidal rate of 40% or more and less than 70%)
F: southern crabgrass, herbicidal effect (criteria 0-5) (southern crabgrass [11]; [26]): 5 (Herbicidal rate of 90% or more (almost completely withered))
herbicidal effect on H: barnyard grass (barnyard grass [12]): 3 (Herbicidal rate of 40% or more and less than 70%)
herbicidal effect on E: rice flat sedge (rice flat sedge): 4 (Herbicidal rate of 70% or more and less than 90%)
N: redroot pigweed, herbicidal effect (criteria 0-5) (redroot pigweed [13]; [26]): 5 (Herbicidal rate of 90% or more (almost completely withered))
herbicidal effect on L: windgrass (windgrass [14]): 3 (Herbicidal rate of 40% or more and less than 70%)
L: windgrass, herbicidal effect (criteria 0-5) (windgrass [15]; [26]): 5 (Herbicidal rate of 90% or more (almost completely withered))
R: persian speedwell, herbicidal effect (criteria 0-5) (persian speedwell [16]; [26]): 5 (Herbicidal rate of 90% or more (almost completely withered))
O: lambsquarters, herbicidal effect (criteria 0-5) (lambsquarters [17]; [26]): 4 (Herbicidal rate of 70% or more and less than 90%)
K: Italian ryegrass, herbicidal effect (criteria 0-5) (Italian ryegrass [18]; [26]): 5 (Herbicidal rate of 90% or more (almost completely withered))
herbicidal effect on N: redroot pigweed (redroot pigweed [19]): 3 (Herbicidal rate of 40% or more and less than 70%)
H: barnyard grass, herbicidal effect (criteria 0-5) (barnyard grass [20]; [26]): 3 (Herbicidal rate of 40% or more and less than 70%)
herbicidal effect on J: blackgrass (blackgrass [21]): 2 (Herbicidal rate of 20% or more and less than 40%)
herbicidal effect on P: chickweed (chickweed [22]): 3 (Herbicidal rate of 40% or more and less than 70%)
herbicidal effect on R: persian speedwell (persian speedwell [23]): 5 (Herbicidal rate of 90% or more (almost completely withered))
herbicidal effect on H: barnyard grass (barnyard grass [24]): 5 (Herbicidal rate of 90% or more (almost completely withered))
herbicidal effect on G: green foxtail (green foxtail [25]): 4 (Herbicidal rate of 70% or more and less than 90%)

CCc1nn(C)c(=O)c(-c2c(-c3ccc(Cl)cc3)sc3ccc(F)cc23)c1O [2-408]
M: velvetleaf, herbicidal effect grade (velvetleaf [1]; [27]): 4 (Herbicidal rate of 70% or more and less than 90%)
herbicidal effect, M: velvetleaf (velvetleaf [2]): 1 (Herbicidal rate of 5% or more and less than 20%)
J: blackgrass, herbicidal effect grade (blackgrass [3]; [27]): 0 (Herbicidal rate of 5% or less (almost no effect))
herbicidal effect, O: lambsquarters (lambsquarters [4]): 3 (Herbicidal rate of 40% or more and less than 70%)
herbicidal effect, K: Italian ryegrass (Italian ryegrass [5]): 0 (Herbicidal rate of 5% or less (almost no effect))
G: green foxtail, herbicidal effect grade (green foxtail [6]; [27]): 5 (Herbicidal rate of 90% or more (almost completely withered))
herbicidal effect, I: wild oat (wild oat [7]): 0 (Herbicidal rate of 5% or less (almost no effect))
P: chickweed, herbicidal effect grade (chickweed [8]; [27]): 5 (Herbicidal rate of 90% or more (almost completely withered))
I: wild oat, herbicidal effect grade (wild oat [9]; [27]): 1 (Herbicidal rate of 5% or more and less than 20%)
herbicidal effect on D: Chinese sprangletop (Chinese sprangletop): 4 (Herbicidal rate of 70% or more and less than 90%)
herbicidal effect, F: southern crabgrass (southern crabgrass [10]): 0 (Herbicidal rate of 5% or less (almost no effect))
F: southern crabgrass, herbicidal effect grade (southern crabgrass [11]; [27]): 4 (Herbicidal rate of 70% or more and less than 90%)
herbicidal effect, H: barnyard grass (barnyard grass [12]): 0 (Herbicidal rate of 5% or less (almost no effect))
herbicidal effect on E: rice flat sedge (rice flat sedge): 5 (Herbicidal rate of 90% or more (almost completely withered))
N: redroot pigweed, herbicidal effect grade (redroot pigweed [13]; [27]): 5 (Herbicidal rate of 90% or more (almost completely withered))
herbicidal effect, L: windgrass (windgrass [14]): 0 (Herbicidal rate of 5% or less (almost no effect))
L: windgrass, herbicidal effect grade (windgrass [15]; [27]): 0 (Herbicidal rate of 5% or less (almost no effect))
R: persian speedwell, herbicidal effect grade (persian speedwell [16]; [27]): 5 (Herbicidal rate of 90% or more (almost completely withered))
O: lambsquarters, herbicidal effect grade (lambsquarters [17]; [27]): 5 (Herbicidal rate of 90% or more (almost completely withered))
K: Italian ryegrass, herbicidal effect grade (Italian ryegrass [18]; [27]): 3 (Herbicidal rate of 40% or more and less than 70%)
herbicidal effect, N: redroot pigweed (redroot pigweed [19]): 4 (Herbicidal rate of 70% or more and less than 90%)
H: barnyard grass, herbicidal effect grade (barnyard grass [20]; [27]): 3 (Herbicidal rate of 40% or more and less than 70%)
herbicidal effect, J: blackgrass (blackgrass [21]): 0 (Herbicidal rate of 5% or less (almost no effect))
herbicidal effect, P: chickweed (chickweed [22]): 0 (Herbicidal rate of 5% or less (almost no effect))
herbicidal effect, R: persian speedwell (persian speedwell [23]): 0 (Herbicidal rate of 5% or less (almost no effect))
herbicidal effect on H: barnyard grass (barnyard grass [24]): 4 (Herbicidal rate of 70% or more and less than 90%)
herbicidal effect, G: green foxtail (green foxtail [25]): 0 (Herbicidal rate of 5% or less (almost no effect))
